Assay results from the supplement of paper PMC10307832.

Assays:
Experiment in all cases: relative viability (nuclei count vs DMSO), 5 days (fraction); higher = more cells survive
Everolimus + Linsitinib = compound: CO[C@H]1C[C@@H]2CC[C@@H](C)[C@@](O)(O2)C(=O)C(=O)N2CCCC[C@H]2C(=O)O[C@H]([C@H](C)C[C@@H]2CC[C@@H](OCCO)[C@H](OC)C2)CC(=O)[C@H](C)/C=C(\C)[C@@H](O)[C@@H](OC)C(=O)[C@H](C)C[C@H](C)/C=C/C=C/C=C/1C [Everolimus] + C[C@]1(O)C[C@@H](c2nc(-c3ccc4ccc(-c5ccccc5)nc4c3)c3c(N)nccn32)C1 [Linsitinib] (partner 1 µM)
Summary of the method: (§1)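 A single step with final 0.05% Triton X-100, 1% formaldehyde and 1 ug/ml Hoechst fixed the cells and stained nuclei 5 days after treatment. Lung cancer cell lines in 1536-well plates had been treated by pin tool the day after seeding with one drug alone or a fixed anchor-drug dose plus five library-drug doses (not always all listed) in √10 steps, and nuclei were counted on 4× images. Relative viability is the ratio of nuclei in treated wells to nuclei in vehicle wells, taken as the median of duplicate plates.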

Everolimus + Alpelisib = compound: CO[C@H]1C[C@@H]2CC[C@@H](C)[C@@](O)(O2)C(=O)C(=O)N2CCCC[C@H]2C(=O)O[C@H]([C@H](C)C[C@@H]2CC[C@@H](OCCO)[C@H](OC)C2)CC(=O)[C@H](C)/C=C(\C)[C@@H](O)[C@@H](OC)C(=O)[C@H](C)C[C@H](C)/C=C/C=C/C=C/1C [Everolimus] + Cc1nc(NC(=O)N2CCC[C@H]2C(N)=O)sc1-c1ccnc(C(C)(C)C(F)(F)F)c1 [Alpelisib] (partner 2 µM)
Summary of the method: as §1

Everolimus + Decitabine = compound: CO[C@H]1C[C@@H]2CC[C@@H](C)[C@@](O)(O2)C(=O)C(=O)N2CCCC[C@H]2C(=O)O[C@H]([C@H](C)C[C@@H]2CC[C@@H](OCCO)[C@H](OC)C2)CC(=O)[C@H](C)/C=C(\C)[C@@H](O)[C@@H](OC)C(=O)[C@H](C)C[C@H](C)/C=C/C=C/C=C/1C [Everolimus] + Nc1ncn([C@H]2C[C@H](O)[C@@H](CO)O2)c(=O)n1 [Decitabine] (partner 2 µM)
Summary of the method: as §1

Everolimus + Pictilisib = compound: CO[C@H]1C[C@@H]2CC[C@@H](C)[C@@](O)(O2)C(=O)C(=O)N2CCCC[C@H]2C(=O)O[C@H]([C@H](C)C[C@@H]2CC[C@@H](OCCO)[C@H](OC)C2)CC(=O)[C@H](C)/C=C(\C)[C@@H](O)[C@@H](OC)C(=O)[C@H](C)C[C@H](C)/C=C/C=C/C=C/1C [Everolimus] + CS(=O)(=O)N1CCN(Cc2cc3nc(-c4cccc5[nH]ncc45)nc(N4CCOCC4)c3s2)CC1 [Pictilisib] (partner 1 µM)
Summary of the method: as §1

Cell Line	relative viability (Everolimus + Linsitinib; first compound 0.01 µM)	relative viability (Everolimus + Linsitinib; first compound 0.03162 µM)	relative viability (Everolimus + Linsitinib; first compound 0.1 µM)	relative viability (Everolimus + Linsitinib; first compound 0.3162 µM)	relative viability (Everolimus + Linsitinib; first compound 1 µM)	relative viability (Everolimus + Alpelisib; first compound 0.01 µM)	relative viability (Everolimus + Alpelisib; first compound 0.03162 µM)	relative viability (Everolimus + Alpelisib; first compound 0.1 µM)	relative viability (Everolimus + Alpelisib; first compound 0.3162 µM)	relative viability (Everolimus + Alpelisib; first compound 1 µM)	relative viability (Everolimus + Decitabine; first compound 0.01 µM)	relative viability (Everolimus + Decitabine; first compound 0.03162 µM)	relative viability (Everolimus + Decitabine; first compound 0.1 µM)	relative viability (Everolimus + Decitabine; first compound 0.3162 µM)	relative viability (Everolimus + Decitabine; first compound 1 µM)	relative viability (Everolimus + Pictilisib; first compound 0.01 µM)	relative viability (Everolimus + Pictilisib; first compound 0.03162 µM)	relative viability (Everolimus + Pictilisib; first compound 0.1 µM)	relative viability (Everolimus + Pictilisib; first compound 0.3162 µM)	relative viability (Everolimus + Pictilisib; first compound 1 µM)
NCI-H1975	0.747	0.618	0.672	0.665	0.597	0.494	0.454	0.456	0.376	0.339	0.365	0.425	0.327	0.385	0.337	0.223	0.242	0.194	0.211	0.199
BEN	0.571	0.355	0.338	0.334	0.326	0.545	0.399	0.319	0.436	0.344	0.574	0.412	0.546	0.442	0.583	0.312	0.281	0.254	0.295	0.336
NCI-H23	0.288	0.3	0.244	0.251	0.271	0.355	0.326	0.285	0.281	0.309	0.264	0.283	0.257	0.259	0.254	0.334	0.268	0.216	0.312	0.344
NCI-H520	0.533	0.441	0.532	0.343	0.372	0.434	0.474	0.335	0.296	0.257	0.273	0.281	0.26	0.287	0.294	0.186	0.197	0.204	0.185	0.165
EPLC-272H	1.15	0.786	0.64	0.619	0.657	0.797	0.577	0.592	0.586	0.638	0.312	0.291	0.259	0.306	0.327	0.274	0.295	0.188	0.211	0.262
LCLC-103H	1.04	0.905	0.864	0.831	0.747	0.887	0.855	0.846	0.776	0.639	0.682	0.682	0.633	0.58	0.653	0.512	0.459	0.471	0.479	0.466
NCI-H2405	0.515	0.49	0.463	0.536	0.536	0.452	0.475	0.372	0.444	0.469	0.521	0.531	0.539	0.532	0.52	0.265	0.291	0.294	0.294	0.275
HCC-15	0.787	0.777	0.692	0.739	0.653	0.763	0.678	0.685	0.608	0.605	0.597	0.463	0.511	0.604	0.482	0.633	0.517	0.372	0.539	0.545
PC-3 [JPC-3]	0.869	0.914	0.785	0.834	0.866	0.881	0.828	0.793	0.789	0.747	0.813	0.794	0.687	–	0.802	0.581	0.585	0.516	0.622	0.53
NCI-H1944	0.84	0.824	0.684	0.754	0.715	0.592	0.565	0.593	0.564	0.562	0.409	0.409	0.386	0.396	0.355	0.315	0.314	0.248	0.31	0.284
HARA	0.839	0.8	0.646	0.674	0.713	0.564	0.457	0.499	0.507	0.412	0.451	0.426	0.426	0.572	0.474	0.236	0.278	0.227	0.228	0.238
NCI-H2126	0.463	0.448	0.393	0.425	0.457	0.509	0.466	0.435	0.473	0.458	0.484	0.421	0.452	0.505	0.497	0.373	0.34	0.359	0.392	0.409
LXF-289	0.984	0.972	0.913	1.02	0.917	0.993	0.967	0.901	0.973	0.868	0.358	0.359	0.306	0.38	0.411	0.579	0.624	0.513	0.555	0.509
NCI-H460	0.42	0.45	0.365	0.301	0.381	0.22	0.298	0.199	0.271	0.168	0.498	0.53	0.506	0.369	0.421	0.305	0.441	0.27	0.299	0.319
NCI-H1395	1	0.864	0.766	0.731	0.787	0.787	0.813	0.722	0.759	1.08	0.59	0.6	0.563	0.574	0.6	0.571	0.548	0.508	0.5	0.496
NCI-H2009	0.875	0.897	0.901	0.887	0.795	0.763	0.741	0.791	0.846	0.906	0.295	0.313	0.382	0.288	0.377	0.565	0.591	0.394	0.673	0.504
